In US20070244449A1, “System and method for the prevention of bacterial and fungal infections including Urinary Tract Infections (UTI) using N-halogenated amino acids” (Novacal Pharmaceuticals, Inc., priority 2005, published 2007):

Columns and labels:
[1] = system: Escherichia coli ATCC 25922; experiment: Destruction of 48 h biofilm on 1-cm Foley catheter pieces, plate count; format: cell-based; conditions: 33 mM, 0.9% saline, pH 3.5
Description: (§1) We have devised a dynamic in vitro model using traditional microbiological methods to assess the antimicrobial efficacy of 33 mM N, N-dichloro 2,2-dimethly taurine in 0.9% saline at pH 3.5, as compared to physiological saline in disinfecting intra-luminal and extra-luminal indwelling Foley catheter.
(§2) Foley Catheter, manufactured by BARD • N,N-dichloro 2,2-dimethyl taurine (33 mM) in 0.9% saline pH 3.5 • Escherichia coli ATCC 25922 • Proteus mirabilis ATCC 29245
(§3) Neutralizer Broth containing: A broth containing dextrose, lecithin, sodium thiosulfate, pancreatic digest of casein, Tween® 80, yeast extract, sodium bisulfate, sodium thioglycollate, monopotassium phosphate, and bromcresol purple.
(§4) The ability of N,N-dichloro 2,2-dimethyl taurine to destroy biofilm formation was evaluated as follows. First, biofilm was established on 1-cm-long pieces of catheter for 48 hours in nutrient broth in the presence of either Proteus mirabilis or Escherichia coli. Subsequently, the biofilm-bearing pieces of catheter were exposed to 33 mM N,N-dichloro 2,2-dimethyl taurine in 0.9% saline at pH 3.5 over various periods of time. After the exposure, the pieces of catheter were transferred into 1 mL of neutralizer broth to stop the reaction. 0.1 mL (10%) of the neutralizer broth was then plated out onto nutrient agar and the number of colonies was counted. The CFU (Colony Forming Unit) values obtained were multiplied by 10 to obtain the actual CFU/mL values per treated sample.

[2] = system: Proteus mirabilis ATCC 29245; experiment: as above; format: cell-based; conditions: 33 mM, 0.9% saline, pH 3.5
Description: as §1, §2, §3, §4

[3] = system: E. coli and Pr. mirabilis; experiment: Treated biofilm-bearing catheter pieces: re-culture (OD600) and visual examination; format: cell-based, Escherichia coli; Proteus mirabilis
Description: In order to measure the amount of live bacteria left on the pieces of catheter following treatment, the biofilm-bearing pieces of catheter were transferred into tubes containing fresh growth medium. After allowing growth in a shaker at 37° C. for 4 hours, Optical Density (OD) was read at 600 nm.
This was also shown by very low optical denisty readings (average of 0.057 OD600 units, individual data not listed) following the attempt to re-culture the bacteria from treated catheters.

[4] = system: urease positive Escherichia coli ATCC 25922; experiment: Biofilm eradication in model urinary catheter flow system; format: cell-based; conditions: for Average Log CFU/cm^2 on catheter section after treatment, average 3 pieces / Average Log CFU/cm^2 on catheter section after treatment, end / Average Log CFU/cm^2 on catheter section after treatment, front / Average Log CFU/cm^2 on catheter section after treatment, middle / Log reduction: pH 4, 0.9% NaCl; for Average Log CFU/cm^2 on catheter section after treatment, average 3 pieces / Average Log CFU/cm^2 on catheter section after treatment, end / Average Log CFU/cm^2 on catheter section after treatment, front / Average Log CFU/cm^2 on catheter section after treatment, middle: 3-day biofilm, 10 min flow + 30 min stationary; for Log reduction: versus PBS or saline
Description: A test system was established which utilized size 14 Foley catheters (supplied by NovaCal), which were cut and installed into a pre-sterilized flow system (FIG. 4) using aseptic techniques. The system consists of five parallel channels, one channel per catheter. Sterile medium was supplied to the system via a flow-break, to prevent back-growth into the medium reservoir. The entire system was placed in a 37° C. incubator. After conditioning the system with artificial urine medium for 30 minutes, 2.0 ml inoculum from an overnight culture of urease positive Escherichia coli ATCC 25922 grown in artificial urine medium at 37° C. was introduced into the system via the valve closest to the flow break (bladder side of catheter). Each inoculum was tested to confirm urease production. After inoculation, the system remained under static conditions (no flow) for two hours, to allow for bacterial attachment to the catheters. Flow of artificial urine medium was then initiated and maintained at a rate of 0.75 ml/min for 3 days.
Test Articles Used Were: • Sterile saline • N,N-dichloro 2,2-dimethyl taurine, 4 mM, pH 4, 0.9% by weight NaCl • N,N-dichloro 2,2-dimethyl taurine, 40 mM, pH 4, 0.9% by weight NaCl
20 ml of each treatment solution N,N-dichloro 2,2-dimethyl taurine and sterile control solution were loaded into 30 ml syringes and connected to a syringe pump. Sterile sections of tubing were attached from the syringe to the valve furthest from the flow break (bag end of the catheter). This end is designated as FRONT for sampling purposes. The pump was turned on and the treatments were introduced at 2.0 ml/min for 10 minutes through the catheters. Excess medium and treatment solution was captured in a waste container. After 10 minutes, the syringe pump was turned off and the solutions were left stationary in the catheters for 30 minutes. The solutions were then withdrawn back through the catheter into the syringe, medium flow was resumed for a 30 minute rinse time and the catheters were then sampled.
Each catheter was divided into 3 segments (front, middle, end) and each segment was subsampled. One subsample was used to determine bacterial populations by plate count, another subsample was analyzed by staining with the LIVE/DEAD® Baclight™ bacterial viability kit (L7012, Molecular Probes, Oregon, USA) using confocal laser microscopy (CSLM), the third sample was imaged using scanning electron microscopy (SEM).
(§5) For viable cell counts, a 3.0 centimeter section of tubing was removed and scraped with a sterile stainless steel rod (using aseptic technique) into a tube containing 10.0 ml of sterile phosphate-buffered saline (PBS). The tubes were then sonicated for two minutes and the suspension was vortexed for one minute. The number of viable (culturable) bacteria was enumerated by serial dilution in PBS and plate counts using the spread-plate technique. Results were expressed as CFU/cm^2 and are calculated as follows: [formula]
The surface area of the internal lumen of the catheter section scraped was determined to be 2.826 cm^2.
Three treatment runs were performed on 3 catheters each: One treated with PBS or sterile 0.9% saline as control, one treated with 4 mM and one treated with 40 mM N,N-dichloro 2,2-dimethyl taurine. The Log (CFU/cm^2) was calculated from the average of 9 treatments, consisting of 3 treatments of 3 catheter pieces for each Test Article.

[5] = system: urease positive Escherichia coli ATCC 25922; experiment: Biofilm prevention in model urinary catheter flow system; format: cell-based
Description: Test Articles Used Were: • Sterile saline • White vinegar at 1:3 dilution with distilled water (filter sterilized). • Neomycin Prescription: 1 ml into 1000 ml of sterile saline • N,N-dichloro 2,2-dimethyl taurine, 40 mM, pH 4, 0.9% by weight NaCl
Day 0: The test system, as described in detail above, utilized size 14 Foley catheters, cut and installed into a pre-sterilized flow system using aseptic techniques. Sterile medium was supplied to the system via a flow-break, to prevent back-growth into the medium reservoir. The entire system was placed into a 37° C. incubator. After conditioning the system with artificial urine medium for 30 minutes, each catheter was treated with a disinfectant. 20.0 ml of each treatment solution was loaded into 30 ml syringes and connected to a syringe pump. Sterile sections of tubing were attached from the syringe to the valve furthest from the flow break (bag end of the catheter). This end is designated as FRONT for sampling purposes. The pump was turned on and the treatments were introduced at 2.0 ml/min for 10 minutes through the catheters. Excess medium and treatment solution was captured in a waste container. After 10 minutes, the syringe pump was turned off and the solutions were left stationary in the catheters for 30 minutes. The solutions were then withdrawn back through the catheter into the syringe. The catheters were then rinsed with sterile medium for 30 minutes.
On Day 0 only: An inoculum from an overnight culture of urease positive Escherichia coli ATCC 25922 grown in artificial urine medium at 37° C. was introduced into the system via the valve closest to the flow break (bladder side of catheter). Each inoculum was tested for confirmation of urease production. After inoculation, the system remained under static conditions (no flow) for two hours, to allow for bacterial attachment to the catheters. Flow of artificial urine medium was then initiated and maintained at a rate of 0.75 ml/min.
as §5, with “Days 1, 3 and 5: For” for “For”, “sterile PBS.” for “sterile phosphate-buffered saline (PBS).”, “Results are” for “Results were”, “and were” for “and are”, “as described in Phase One.” for “as follows: [formula]”
Days 1 and 3: After sampling, the catheters were disinfected and rinsed with sterile medium as described above.
Days 2 and 4: the catheters were disinfected and rinsed with sterile medium as described above. No samples were taken.
Day 5: Samples were taken for imaging and both ends of the catheter were sampled for viable cell count data.

[6] = system: bacteria on Foley catheter removed from a patient; experiment: Ex-vivo treatment of a patient catheter, viable plate counts; format: cell-based; conditions: 40 mM
Description: Test Articles Used Were: • Sterile phosphate-buffered saline (PBS) • N,N-dichloro 2,2-dimethyl taurine, 40 mM, pH 4, 0.9% by weight NaCl
A Foley catheter was removed from a patient by hospital personnel and placed in a sterile bag. In the Bozeman Deaconess Hospital (BDH) lab, the outside of the catheter was wiped down with 70% ethanol. Then the catheter was aseptically cut into 3 catheter portions (bag-end, middle and patient-end). Each portion was cut into 3.0 cm long sections using a ruler and razor blades.
Three of the sections (one bag-end, one middle and one patient-end) designated as control were placed into sterile PBS. Three of the sections (one bag-end, one middle and one patient-end) were placed in 40 mM N,N-dichloro 2,2-dimethyl taurine. All catheter sections were treated for 30 minutes individually in sterile glass tubes, each with sufficient solution to be immersed completely. After treatment, each 3 cm section was removed from the treatment tubes and the PBS control tubes and placed into a second glass tube containing sterile PBS for a 2 minute rinse in order to remove the treatment solution. The section was then removed from the tube and aseptically cut into 1.0 cm and 2.0 cm pieces. The 2.0 cm piece was placed in a tube containing 10 ml of sterile PBS, vortexed, sonicated and diluted for viable plate counts. The number of viable (culturable) bacteria was enumerated by serial dilution in PBS and plate counts using the spread-plate technique. Samples were plated on blood agar plates. Results will be expressed as colony-forming units/cm^2, CFU/cm^2 (calculated as 2.0 cm length×0.25 cm (radius)×3.14 (pi)=1.57 cm^2). The 1.0 cm piece was placed in 4% formaldehyde solution.

[7] = daily treatment, DCDMT 40 mM pH 4 0.9% NaCl, vinegar 1:3 in water, neomycin prescription 1 ml in 1000 ml saline
[8] = pH 4, 0.9% NaCl, 30 min immersion

SMILES: CC(C)(CS(=O)(=O)O)N(Cl)Cl [N,N-dichloro 2,2-dimethyl taurine]
- CFU/mL ([1]; exposure 5 min): 0 CFU/mL
- CFU/mL ([1]; exposure 10 min): 0 CFU/mL
- CFU/mL ([1]; exposure 20 min): 0 CFU/mL
- CFU/mL ([1]; exposure 30 min): 0 CFU/mL
- CFU/mL ([1]; exposure 45 min): 0 CFU/mL
- CFU/mL ([1]; exposure 60 min): 0 CFU/mL
- CFU/mL ([1]; exposure 120 min): 0 CFU/mL
- CFU/mL ([1]; exposure <1 min): 0 CFU/mL
- CFU/mL ([2]; exposure 5 min): 1210 CFU/mL
- CFU/mL ([2]; exposure 10 min): 150 CFU/mL
- CFU/mL ([2]; exposure 20 min): 150 CFU/mL
- CFU/mL ([2]; exposure 30 min): 100 CFU/mL
- CFU/mL ([2]; exposure 45 min): 20 CFU/mL
- CFU/mL ([2]; exposure 60 min): 10 CFU/mL
- CFU/mL ([2]; exposure 120 min): 260 CFU/mL
- CFU/mL ([2]; exposure <1 min): >>3000 CFU/mL
- Visual examination of biofilm on the catheter surface ([3]; 33 mM in 0.9% saline at pH 3.5): subsequent removal
- optical density readings following re-culture of bacteria from treated catheters (average) ([3]; 33 mM, 0.9% saline, pH 3.5, 4 h growth at 37 C in fresh medium, average, individual data not listed): 0.057 OD600 units
- bacterial counts and presence of biofilm (visual interpretation from images) ([4]; 4 mM and 40 mM): significantly reduced
- Average Log CFU/cm^2 on catheter section after treatment, average 3 pieces ([4]; 4 mM): 4.4 Log CFU/cm^2
- Average Log CFU/cm^2 on catheter section after treatment, end ([4]; 4 mM): 5.1 Log CFU/cm^2
- Average Log CFU/cm^2 on catheter section after treatment, front ([4]; 4 mM): 4.1 Log CFU/cm^2
- Average Log CFU/cm^2 on catheter section after treatment, middle ([4]; 4 mM): 3.9 Log CFU/cm^2
- Log reduction ([4]; 4 mM): 4.7 Log
- Average Log CFU/cm^2 on catheter section after treatment, average 3 pieces ([4]; 40 mM): 3.8 Log CFU/cm^2
- Average Log CFU/cm^2 on catheter section after treatment, end ([4]; 40 mM): 3.8 Log CFU/cm^2
- Average Log CFU/cm^2 on catheter section after treatment, front ([4]; 40 mM): 3.7 Log CFU/cm^2
- Average Log CFU/cm^2 on catheter section after treatment, middle ([4]; 40 mM): 3.8 Log CFU/cm^2
- Log reduction ([4]; 40 mM): 5.3 Log
- biofilm formation during the 5 day duration of the experiment ([5]; 40 mM, pH 4, 0.9% NaCl): appeared to inhibit biofilm formation
- Biofilm prevention, viable cell count, Day 1 [5, 7]: 2.6 log CFU/cm^2
- Biofilm prevention, viable cell count, Day 3 [5, 7]: 3.2 log CFU/cm^2
- Biofilm prevention, viable cell count, Day 5 "End" (bladder end) [5, 7]: 3.1 log CFU/cm^2
- Biofilm prevention, viable cell count, Day 5 "Front" (bag end) [5, 7]: 3.9 log CFU/cm^2
- Average Log CFU/cm^2 on catheter section after treatment, average 3 pieces [6, 8]: 1.2 Log CFU/cm^2
- Average Log CFU/cm^2 on catheter section after treatment, bag end [6, 8]: 2.1 Log CFU/cm^2
- Average Log CFU/cm^2 on catheter section after treatment, middle [6, 8]: 0.5 Log CFU/cm^2
- Average Log CFU/cm^2 on catheter section after treatment, patient end [6, 8]: 0.8 Log CFU/cm^2
- Log reduction ([6]; compared to catheter pieces treated with sterile PBS): 1.8 Log
